# Experimental data: patent US20100298141A1, “SUBSTITUTED PYRIDINE N-OXIDE HERBICIDES” (E. I. DU PONT DE NEMOURS AND COMPANY, priority 2007, published 2010)
# Key:
# eastern black nightshade = test: Test C pre-/postemergence test; format: in vivo, Solanum ptycanthum
# Method in brief: (§1)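 Test chemicals were formulated with surfactant in a non-phytotoxic solvent and sprayed both on freshly planted seeds (preemergence) and on 1- to 4-leaf plants of 2–18 cm (postemergence). Flooded-paddy pots received compound directly into 3 cm of standing water, maintained for the test.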
# crabgrass = test: Test C pre-/postemergence test; format: in vivo, Digitaria sanguinalis
# Method in brief: as §1
# velvetleaf [1] = test: Test A pre-/postemergence greenhouse test; format: in vivo, Abutilon theophrasti; details: for Plant response rating, Velvetleaf: 0 to 100 scale where 0 is no effect and 100 is complete control; for Velvetleaf plant response rating: 0 to 100 scale
# Method in brief: (§2)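 Herbicidal effect is a visual injury score given about ten days post-treatment by comparison with untreated controls. Preemergence plots received a directed spray onto sown loam–sand soil; postemergence plants, at the one- to two-leaf stage and 2–10 cm tall, were sprayed at the same time.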
# common ragweed = test: Test C pre-/postemergence test; format: in vivo, Ambrosia elation
# Method in brief: as §1
# green foxtail = test: Test C pre-/postemergence test; format: in vivo, Setaria viridis
# Method in brief: as §1
# redroot pigweed = test: Test A pre-/postemergence greenhouse test; format: in vivo, Amaranthus retroflexus; details: for Plant response rating, Pigweed: 0 to 100 scale where 0 is no effect and 100 is complete control; for Pigweed plant response rating: 0 to 100 scale
# Method in brief: as §2
# downy brome = test: Test C pre-/postemergence test; format: in vivo, Bromus tectorum
# Method in brief: as §1
# barnyardgrass = test: Test A pre-/postemergence greenhouse test; format: in vivo, Echinochloa crus-galli; details: for Plant response rating, Barnyardgrass: 0 to 100 scale where 0 is no effect and 100 is complete control; for Barnyardgrass plant response rating: 0 to 100 scale
# Method in brief: as §2
# johnsongrass = test: Test C pre-/postemergence test; format: in vivo, Sorghum halepense
# Method in brief: as §1
# cocklebur = test: Test C pre-/postemergence test; format: in vivo, Xanthium strumarium
# Method in brief: as §1
# kochia = test: Test C pre-/postemergence test; format: in vivo, Kochia scoparia
# Method in brief: as §1
# lambsquarters = test: Test C pre-/postemergence test; format: in vivo, Chenopodium album
# Method in brief: as §1
# velvetleaf [2] = test: Test C pre-/postemergence test; format: in vivo, Abutilon theophrasti
# Method in brief: as §1
# wild oat = test: Test C pre-/postemergence test; format: in vivo, Avena fatua
# Method in brief: as §1
# rice = test: Test C flooded paddy test; format: in vivo, Oryza sativa; details: Flood, scale 0 to 100, 0 no effect, 100 complete control, 13 to 15 days
# Method in brief: (§3)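 Greenhouse pots flooded to 3 cm above soil at time of treatment received compound via the water, which stayed at that level.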
# duck salad = test: Test C flooded paddy test; format: in vivo, Heteranthera limosa; details: Flood, scale 0 to 100, 0 no effect, 100 complete control, 13 to 15 days
# Method in brief: as §3
# Surinam grass = test: Test C pre-/postemergence test; format: in vivo, Brachiaria decumbens
# Method in brief: as §1
# giant foxtail = test: Test C pre-/postemergence test; format: in vivo, Setaria faberii
# Method in brief: as §1
# [3] = 62 g ai/ha, Preemergence, scale 0 to 100
# [4] = 125 g ai/ha, preemergence, scale 0 (no effect) to 100 (complete control)
# [5] = Preemergence, 31 g ai/ha, scale 0 to 100 (0 no effect, 100 complete control)
# [6] = preemergence, 250 g ai/ha, scale 0 (no effect) to 100 (complete control)
# [7] = Postemergence, 62 g ai/ha, scale 0 to 100, 0 no effect, 100 complete control
# [8] = Postemergence, 125 g ai/ha, scale 0 to 100, 0 no effect, 100 complete control
# [9] = Postemergence, 250 g ai/ha, scale 0 to 100, 0 no effect, 100 complete control
# [10] = Postemergence, 500 g ai/ha, 0 is no effect, 100 is complete control
# [11] = Preemergence, 125 g ai/ha, 0 no effect, 100 complete control
smiles,measurement,setting,value
[O-][n+]1cc(Cl)ccc1[S+]([O-])Cc1c(C(F)(F)F)nn(CC(F)(F)F)c1Cl (centres unmarked) [Compound 47],Nightshade plant response rating,eastern black nightshade; [3],85
same,Nightshade plant response rating,eastern black nightshade; [4],90
same,"Plant response rating, Nightshade",eastern black nightshade; [5],0
same,Nightshade plant response rating,eastern black nightshade; [6],100
same,"Crabgrass, Large plant response rating",crabgrass; [3],100
same,"Crabgrass, Large plant response rating",crabgrass; [4],100
same,"Plant response rating (0 to 100), Crabgrass, Large","crabgrass; Postemergence, 31 g ai/ha",0
same,"Plant response rating, Crabgrass, Large",crabgrass; [7],0
same,"Plant response rating, Crabgrass, Large",crabgrass; [8],0
same,"Plant response rating, Crabgrass, Large",crabgrass; [9],30
same,"Plant response rating, Crabgrass, Large",crabgrass; [5],98
same,"Crabgrass, Large plant response rating",crabgrass; [6],100
same,"Plant response rating, Velvetleaf","velvetleaf [1]; Postemergence, 125 g ai/ha",60
same,Velvetleaf plant response rating,velvetleaf [1]; [10],70
same,Velvetleaf plant response rating,velvetleaf [1]; [11],0
same,"Plant response rating, Velvetleaf","velvetleaf [1]; Preemergence, 500 g ai/ha",100
same,Ragweed plant response rating,common ragweed; [3],5
same,Ragweed plant response rating,common ragweed; [4],5
same,"Plant response rating (0 to 100), Ragweed","common ragweed; Postemergence, 31 g ai/ha",0
same,"Plant response rating (0 to 100), Ragweed","common ragweed; Postemergence, 62 g ai/ha",0
same,"Plant response rating, Ragweed",common ragweed; [8],0
same,"Plant response rating, Ragweed",common ragweed; [9],0
same,"Plant response rating, Ragweed",common ragweed; [5],0
same,Ragweed plant response rating,common ragweed; [6],50
same,"Foxtail, Green plant response rating",green foxtail; [3],85
same,"Foxtail, Green plant response rating",green foxtail; [4],90
same,"Plant response rating (0 to 100), Foxtail, Green","green foxtail; Postemergence, 31 g ai/ha",0
same,"Plant response rating, Foxtail, Green",green foxtail; [7],0
same,"Plant response rating, Foxtail, Green",green foxtail; [8],5
same,"Plant response rating, Foxtail, Green",green foxtail; [9],80
same,"Plant response rating, Foxtail, Green",green foxtail; [5],70
same,"Foxtail, Green plant response rating",green foxtail; [6],100
same,"Plant response rating, Pigweed","redroot pigweed; Postemergence, 125 g ai/ha",60
same,Pigweed plant response rating,redroot pigweed; [10],80
same,Pigweed plant response rating,redroot pigweed; [11],100
same,"Plant response rating, Pigweed","redroot pigweed; Preemergence, 500 g ai/ha",100
same,"Bromegrass, Downy plant response rating",downy brome; [3],0
same,"Bromegrass, Downy plant response rating",downy brome; [4],10
same,"Plant response rating (0 to 100), Bromegrass, Downy","downy brome; Postemergence, 31 g ai/ha",0
same,"Plant response rating, Bromegrass, Downy",downy brome; [7],0
same,"Plant response rating, Bromegrass, Downy",downy brome; [8],0
same,"Plant response rating, Bromegrass, Downy",downy brome; [9],10
same,"Plant response rating, Bromegrass, Downy",downy brome; [5],0
same,"Bromegrass, Downy plant response rating",downy brome; [6],50
same,"Plant response rating, Barnyardgrass","barnyardgrass; Postemergence, 125 g ai/ha",80
same,Barnyardgrass plant response rating,barnyardgrass; [10],90
same,Barnyardgrass plant response rating,barnyardgrass; [11],90
same,"Plant response rating, Barnyardgrass","barnyardgrass; Preemergence, 500 g ai/ha",100
same,Johnsongrass plant response rating,johnsongrass; [3],90
same,Johnsongrass plant response rating,johnsongrass; [4],100
same,"Plant response rating (0 to 100), Johnsongrass","johnsongrass; Postemergence, 31 g ai/ha",0
same,"Plant response rating, Johnsongrass",johnsongrass; [7],0
same,"Plant response rating, Johnsongrass",johnsongrass; [8],0
same,"Plant response rating, Johnsongrass",johnsongrass; [9],85
same,"Plant response rating, Johnsongrass",johnsongrass; [5],85
same,Johnsongrass plant response rating,johnsongrass; [6],100
same,Cocklebur plant response rating,cocklebur; [3],0
same,Cocklebur plant response rating,cocklebur; [4],0
same,"Plant response rating (0 to 100), Cocklebur","cocklebur; Postemergence, 31 g ai/ha",0
same,"Plant response rating, Cocklebur",cocklebur; [7],0
same,"Plant response rating, Cocklebur",cocklebur; [8],0
same,"Plant response rating, Cocklebur",cocklebur; [9],0
same,"Plant response rating, Cocklebur",cocklebur; [5],0
same,Cocklebur plant response rating,cocklebur; [6],0
same,Kochia plant response rating,kochia; [3],0
same,Kochia plant response rating,kochia; [4],100
same,"Plant response rating (0 to 100), Kochia","kochia; Postemergence, 31 g ai/ha",0
same,"Plant response rating, Kochia",kochia; [7],0
same,"Plant response rating, Kochia",kochia; [8],0
same,"Plant response rating, Kochia",kochia; [9],0
same,"Plant response rating, Kochia",kochia; [5],0
same,Kochia plant response rating,kochia; [6],100
same,Lambsquarters plant response rating,lambsquarters; [3],100
same,Lambsquarters plant response rating,lambsquarters; [4],100
same,"Plant response rating (0 to 100), Lambsquarters","lambsquarters; Postemergence, 31 g ai/ha",0
same,"Plant response rating, Lambsquarters",lambsquarters; [7],0
same,"Plant response rating, Lambsquarters",lambsquarters; [8],0
same,"Plant response rating, Lambsquarters",lambsquarters; [9],50
same,"Plant response rating, Lambsquarters",lambsquarters; [5],100
same,Lambsquarters plant response rating,lambsquarters; [6],100
same,Velvetleaf plant response rating,velvetleaf [2]; [3],0
same,Velvetleaf plant response rating,velvetleaf [2]; [4],70
same,"Plant response rating (0 to 100), Velvetleaf","velvetleaf [2]; Postemergence, 31 g ai/ha",0
same,"Plant response rating (0 to 100), Velvetleaf","velvetleaf [2]; Postemergence, 62 g ai/ha",0
same,"Plant response rating, Velvetleaf",velvetleaf [2]; [8],0
same,"Plant response rating, Velvetleaf",velvetleaf [2]; [9],20
same,"Plant response rating, Velvetleaf",velvetleaf [2]; [5],0
same,Velvetleaf plant response rating,velvetleaf [2]; [6],100
same,"Oat, Wild plant response rating",wild oat; [3],10
same,"Oat, Wild plant response rating",wild oat; [4],90
same,"Plant response rating (0 to 100), Oat, Wild","wild oat; Postemergence, 31 g ai/ha",0
same,"Plant response rating, Oat, Wild",wild oat; [7],0
same,"Plant response rating, Oat, Wild",wild oat; [8],10
same,"Plant response rating, Oat, Wild",wild oat; [9],40
same,"Plant response rating, Oat, Wild",wild oat; [5],10
same,"Oat, Wild plant response rating",wild oat; [6],95
same,"Plant response rating, Rice",rice; 62 g ai/ha,55
same,"Plant response rating, Rice",rice; 250 g ai/ha,65
same,"Plant response rating, Ducksalad",duck salad; 62 g ai/ha,75
same,"Plant response rating, Ducksalad",duck salad; 250 g ai/ha,90
same,Surinam Grass plant response rating,Surinam grass; [3],80
same,Surinam Grass plant response rating,Surinam grass; [4],100
same,"Plant response rating (0 to 100), Surinam Grass","Surinam grass; Postemergence, 31 g ai/ha",0
same,"Plant response rating (0 to 100), Surinam Grass","Surinam grass; Postemergence, 62 g ai/ha",0
same,"Plant response rating, Surinam Grass",Surinam grass; [8],0
same,"Plant response rating, Surinam Grass",Surinam grass; [9],60
same,"Plant response rating, Surinam Grass",Surinam grass; [5],50
same,Surinam Grass plant response rating,Surinam grass; [6],100
same,"Foxtail, Giant plant response rating",giant foxtail; [3],100
same,"Foxtail, Giant plant response rating",giant foxtail; [4],100
same,"Plant response rating (0 to 100), Foxtail, Giant","giant foxtail; Postemergence, 31 g ai/ha",0
same,"Plant response rating, Foxtail, Giant",giant foxtail; [7],0
same,"Plant response rating, Foxtail, Giant",giant foxtail; [8],0
same,"Plant response rating, Foxtail, Giant",giant foxtail; [9],50
same,"Plant response rating, Foxtail, Giant",giant foxtail; [5],85
same,"Foxtail, Giant plant response rating",giant foxtail; [6],100
